Assay results published in ChEMBL document CHEMBL4196211, “In Vitro Mechanistic Study of the Anti-inflammatory Activity of a Quinoline Isolated from Spondias pinnata Bark” (J Nat Prod, 2018).
Activity calls are given as the source filed them. The calls are words filed in the database; no cut-off is given here.

Experiments:
[1] = test system: RAW264.7; test: Antiinflammatory activity against mouse RAW264.7 cells assessed as inhibition of LPS-induced IL-1beta production at 20 uM pretreated for 6 hrs followed by LPS stimulation measured after 24 hrs by ELISA; assay type: functional, cell-based
[2] = test system: RAW264.7; test: Antiinflammatory activity against mouse RAW264.7 cells assessed as inhibition of LPS-induced nitrite production at 20 uM pretreated for 6 hrs followed by LPS stimulation measured after 24 hrs by […]; assay type: functional, cell-based
[3] = test system: RAW264.7; test: Antiinflammatory activity against mouse RAW264.7 cells assessed as inhibition of LPS-induced IL-6 production at 20 uM pretreated for 6 hrs followed by LPS stimulation measured after 24 hrs by ELISA; assay type: functional, cell-based
[4] = test system: RAW264.7; test: Antiinflammatory activity against mouse RAW264.7 cells assessed as inhibition of LPS-induced TNFalpha production at 20 uM pretreated for 6 hrs followed by LPS stimulation measured after 24 hrs by ELISA; assay type: functional, cell-based
[5] = test system: RAW264.7; test: Inhibition of NF-kappaB in mouse RAW264.7 cells assessed as LPS-induced iNOS expression level at 100 uM pretreated for 6 hrs followed by LPS stimulation measured after 24 hrs by Western blot analysis (reference value: 5.69); assay type: cell-based
[6] = test system: RAW264.7; test: Effect on beta-actin expression level in LPS-induced mouse RAW264.7 cells at 75 uM pretreated for 6 hrs followed by LPS stimulation measured after 24 hrs by Western blot analysis (reference value: 0.95); assay type: ADME, cell-based; settings: raw264.7, 24 h
[7] = test system: RAW264.7; test: Inhibition of NF-kappaB in mouse RAW264.7 cells assessed as reduction in LPS-induced COX-2 mRNA level at 50 to 100 uM by qRT-PCR analysis; assay type: cell-based
[8] = test system: RAW264.7; test: Inhibition of LPS-induced I-kappaB phosphorylation in mouse RAW264.7 cells pretreated for 6 hrs followed by LPS stimulation measured after 2 hrs by Western blot analysis; assay type: cell-based
[9] = test system: RAW264.7; test: Effect on beta-actin expression level in LPS-induced mouse RAW264.7 cells at 75 uM pretreated for 6 hrs followed by LPS stimulation measured after 2 hrs by Western blot analysis (reference value: 0.99); assay type: ADME, cell-based; settings: raw264.7, 2 h
[10] = test system: RAW264.7; test: Cytotoxicity against mouse RAW264.7 cells assessed as reduction in cell viability at 50 to 100 uM after 48 hrs by WST-1 assay; assay type: cell-based; settings: raw264.7, 48 h
[11] = test system: RAW264.7; test: Effect on LPS-induced I-kappaB level in mouse RAW264.7 cells at 50 uM pretreated for 6 hrs followed by LPS stimulation measured after 2 hrs by Western blot analysis (reference value: 0.44); assay type: cell-based
[12] = test system: RAW264.7; test: Inhibition of NF-kappaB in mouse RAW264.7 cells assessed as LPS-induced nuclear NF-kappaB level at 75 uM pretreated for 6 hrs followed by LPS stimulation measured after 2 hrs by Western blot analysis (reference value: 6.77); assay type: cell-based
[13] = test system: RAW264.7; test: Antiinflammatory activity against mouse RAW264.7 cells assessed as inhibition of LPS-induced TNFalpha production at 100 uM pretreated for 6 hrs followed by LPS stimulation measured after 24 hrs by ELISA; assay type: functional, cell-based
[14] = test system: RAW264.7; test: Effect on LPS-induced I-kappaB level in mouse RAW264.7 cells at 100 uM pretreated for 6 hrs followed by LPS stimulation measured after 2 hrs by Western blot analysis (reference value: 0.44); assay type: cell-based
[15] = test system: RAW264.7; test: Inhibition of NF-kappaB in mouse RAW264.7 cells assessed as reduction in LPS-induced iNOS expression level pretreated for 6 hrs followed by LPS stimulation measured after 24 hrs by Western blot analysis; assay type: cell-based
[16] = test system: RAW264.7; test: Inhibition of NF-kappaB in mouse RAW264.7 cells assessed as reduction in LPS-induced iNOS mRNA level at 50 to 100 uM by qRT-PCR analysis; assay type: cell-based
[17] = test system: RAW264.7; test: Inhibition of NF-kappaB in mouse RAW264.7 cells assessed as LPS-induced cytosolic NF-kappaB level at 75 uM pretreated for 6 hrs followed by LPS stimulation measured after 2 hrs by Western blot analysis (reference value: 0.13); assay type: cell-based
[18] = test system: RAW264.7; test: Antiinflammatory activity against mouse RAW264.7 cells assessed as inhibition of LPS-induced IL-6 production at 50 to 100 uM pretreated for 6 hrs followed by LPS stimulation measured after 24 hrs by ELISA; assay type: functional, cell-based
[19] = test system: RAW264.7; test: Inhibition of NF-kappaB in mouse RAW264.7 cells assessed as LPS-induced COX-2 expression level at 75 uM pretreated for 6 hrs followed by LPS stimulation measured after 24 hrs by Western blot analysis (reference value: 2.02); assay type: cell-based
[20] = test system: RAW264.7; test: Effect on tubulin expression level in LPS-induced mouse RAW264.7 cells at 75 uM pretreated for 6 hrs followed by LPS stimulation measured after 2 hrs by Western blot analysis (reference value: 1.02); assay type: ADME, cell-based; settings: raw264.7, 2 h
[21] = test system: RAW264.7; test: Effect on LPS-induced I-kappaB level in mouse RAW264.7 cells at 75 uM pretreated for 6 hrs followed by LPS stimulation measured after 2 hrs by Western blot analysis (reference value: 0.44); assay type: cell-based
[22] = test system: RAW264.7; test: Inhibition of NF-kappaB in mouse RAW264.7 cells assessed as LPS-induced COX-2 expression level at 50 uM pretreated for 6 hrs followed by LPS stimulation measured after 24 hrs by Western blot analysis (reference value: 2.02); assay type: cell-based
[23] = test system: RAW264.7; test: Inhibition of NF-kappaB in mouse RAW264.7 cells assessed as reduction in LPS-induced IL-1beta mRNA level at 50 to 100 uM by qRT-PCR analysis; assay type: cell-based
[24] = test system: RAW264.7; test: Inhibition of NF-kappaB in mouse RAW264.7 cells assessed as LPS-induced nuclear NF-kappaB level at 50 uM pretreated for 6 hrs followed by LPS stimulation measured after 2 hrs by Western blot analysis (reference value: 6.77); assay type: cell-based
[25] = test system: RAW264.7; test: Antiinflammatory activity against mouse RAW264.7 cells assessed as inhibition of LPS-induced nitrite production at 100 uM pretreated for 6 hrs followed by LPS stimulation measured after 24 hrs by […]; assay type: functional, cell-based
[26] = test system: RAW264.7; test: Inhibition of NF-kappaB in mouse RAW264.7 cells assessed as LPS-induced cytosolic NF-kappaB level at 50 uM pretreated for 6 hrs followed by LPS stimulation measured after 2 hrs by Western blot analysis (reference value: 0.13); assay type: cell-based
[27] = test system: RAW264.7; test: Effect on beta-actin expression level in LPS-induced mouse RAW264.7 cells at 100 uM pretreated for 6 hrs followed by LPS stimulation measured after 24 hrs by Western blot analysis (reference value: 0.95); assay type: ADME, cell-based; settings: raw264.7, 24 h
[28] = test system: RAW264.7; test: Inhibition of NF-kappaB in mouse RAW264.7 cells assessed as LPS-induced COX-2 expression level at 100 uM pretreated for 6 hrs followed by LPS stimulation measured after 24 hrs by Western blot analysis (reference value: 2.02); assay type: cell-based
[29] = organism: Mus musculus; test: Effect on LPS-induced I-kappaB phosphorylation at 50 uM pretreated for 6 hrs followed by LPS stimulation measured after 2 hrs by Western blot analysis (reference value: 2.22)
[30] = test system: RAW264.7; test: Antiinflammatory activity against mouse RAW264.7 cells assessed as inhibition of LPS-induced intracellular ROS production at 50 to 100 uM pretreated for 12 hrs followed by LPS stimulation measured after 24 hrs by DCF-DA probe based flow cytometry; assay type: functional, cell-based
[31] = test system: RAW264.7; test: Inhibition of NF-kappaB in mouse RAW264.7 cells assessed as reduction in LPS-induced TNFalpha mRNA level at 50 to 100 uM by qRT-PCR analysis; assay type: cell-based
[32] = test system: RAW264.7; test: Inhibition of NF-kappaB in mouse RAW264.7 cells assessed as reduction in LPS-induced IL-6 mRNA level at 50 to 100 uM by qRT-PCR analysis; assay type: cell-based
[33] = test system: RAW264.7; test: Antiinflammatory activity against mouse RAW264.7 cells assessed as inhibition of LPS-induced IL-1beta production at 50 to 100 uM pretreated for 6 hrs followed by LPS stimulation measured after 24 hrs by ELISA; assay type: functional, cell-based
[34] = test system: RAW264.7; test: Inhibition of NF-kappaB in mouse RAW264.7 cells assessed as LPS-induced iNOS expression level at 70 uM pretreated for 6 hrs followed by LPS stimulation measured after 24 hrs by Western blot analysis (reference value: 5.69); assay type: cell-based
[35] = test system: RAW264.7; test: Inhibition of NF-kappaB in mouse RAW264.7 cells assessed as LPS-induced nuclear NF-kappaB level at 100 uM pretreated for 6 hrs followed by LPS stimulation measured after 2 hrs by Western blot analysis (reference value: 6.77); assay type: cell-based
[36] = test system: RAW264.7; test: Inhibition of NF-kappaB nuclear localization in LPS-induced mouse RAW264.7 cells at 50 to 100 uM pretreated for 6 hrs followed by LPS stimulation measured after 2 hrs by DAPI/FITC staining based laser scanning confocal microscopy; assay type: cell-based
[37] = test system: RAW264.7; test: Effect on tubulin expression level in LPS-induced mouse RAW264.7 cells at 100 uM pretreated for 6 hrs followed by LPS stimulation measured after 2 hrs by Western blot analysis (reference value: 1.02); assay type: ADME, cell-based; settings: raw264.7, 2 h
[38] = test system: RAW264.7; test: Inhibition of NF-kappaB in mouse RAW264.7 cells assessed as LPS-induced iNOS expression level at 50 uM pretreated for 6 hrs followed by LPS stimulation measured after 24 hrs by Western blot analysis (reference value: 5.69); assay type: cell-based
[39] = test system: RAW264.7; test: Effect on tubulin expression level in LPS-induced mouse RAW264.7 cells at 50 uM pretreated for 6 hrs followed by LPS stimulation measured after 2 hrs by Western blot analysis (reference value: 1.02); assay type: ADME, cell-based; settings: raw264.7, 2 h
[40] = test system: RAW264.7; test: Inhibition of NF-kappaB in mouse RAW264.7 cells assessed as LPS-induced cytosolic NF-kappaB level at 100 uM pretreated for 6 hrs followed by LPS stimulation measured after 2 hrs by Western blot analysis (reference value: 0.13); assay type: cell-based
[41] = test system: RAW264.7; test: Effect on beta-actin expression level in LPS-induced mouse RAW264.7 cells at 100 uM pretreated for 6 hrs followed by LPS stimulation measured after 2 hrs by Western blot analysis (reference value: 0.99); assay type: ADME, cell-based; settings: raw264.7, 2 h
[42] = test system: RAW264.7; test: Effect on beta-actin expression level in LPS-induced mouse RAW264.7 cells at 50 uM pretreated for 6 hrs followed by LPS stimulation measured after 2 hrs by Western blot analysis (reference value: 0.99); assay type: ADME, cell-based; settings: raw264.7, 2 h
[43] = test system: RAW264.7; test: Effect on beta-actin expression level in LPS-induced mouse RAW264.7 cells at 50 uM pretreated for 6 hrs followed by LPS stimulation measured after 24 hrs by Western blot analysis (reference value: 0.95); assay type: ADME, cell-based; settings: raw264.7, 24 h
[44] = organism: Mus musculus; test: Effect on LPS-induced I-kappaB phosphorylation at 75 uM pretreated for 6 hrs followed by LPS stimulation measured after 2 hrs by Western blot analysis (reference value: 2.22)
[45] = organism: Mus musculus; test: Effect on LPS-induced I-kappaB phosphorylation at 100 uM pretreated for 6 hrs followed by LPS stimulation measured after 2 hrs by Western blot analysis (reference value: 2.22)

C[C@@H]1C[C@H]2[C@@H]3CCC4=CC(=O)C=C[C@]4(C)[C@@]3(F)[C@@H](O)C[C@]2(C)[C@@]1(O)C(=O)CO
inhibition [1]: Active | inhibition [2]: Active | inhibition [3]: Active | inhibition [4]: Active

COc1cc2ccc(=O)[nH]c2cc1O
fold change (FC) [5]: 1.04 | fold change (FC) [6]: 1 | inhibition [7]: Active | inhibition [8]: Dose-dependent effect | fold change (FC) [9]: 0.96 | Activity [10]: Non-Toxic | fold change (FC) [11]: 0.64 | fold change (FC) [12]: 3.89 | inhibition [13]: Active | fold change (FC) [14]: 0.99 | inhibition [15]: Dose-dependent effect | inhibition [16]: Active | fold change (FC) [17]: 0.91 | inhibition [18]: Active | fold change (FC) [19]: 1.29 | fold change (FC) [20]: 0.96 | fold change (FC) [21]: 0.85 | fold change (FC) [22]: 1.72 | inhibition [23]: Active | fold change (FC) [24]: 5.25 | inhibition [25]: Active | fold change (FC) [26]: 0.3 | fold change (FC) [27]: 0.96 | fold change (FC) [28]: 1.02 | fold change (FC) [29]: 1.86 | inhibition [30]: Active | inhibition [31]: Active | inhibition [32]: Active | inhibition [33]: Active | fold change (FC) [34]: 1.98 | fold change (FC) [35]: 1.56 | inhibition [36]: Active | fold change (FC) [37]: 1.01 | fold change (FC) [38]: 3.4 | fold change (FC) [39]: 0.93 | fold change (FC) [40]: 0.97 | fold change (FC) [41]: 1 | fold change (FC) [42]: 0.94 | fold change (FC) [43]: 0.95 | fold change (FC) [44]: 1.11 | fold change (FC) [45]: 1.05
